{"source": "patent US8076112B2", "about": "“Fermentation processes” (priority 2006, dated 2011)", "tested_on": "Lactobacillus paracasei", "test": "Effect of Lysozyme on Lactobacillus in fermentation medium (liquefied corn mash), bacterial plating and counting", "type": "cell-based", "conditions": "0-100-300-1000 mg/L Lysozyme in corn mash pH 5.05, 32° C., 0, 24 and 48 hours (FIG. 4)", "method": "Milled corn was liquefied in an aqueous slurry (pH 5.6) using 50 NU/g DS Bacterial Alpha-Amylase A by heating until a temperature of 85° C. (approx 20 minutes) was reached. Thereafter the slurry is cooked for another 60 minutes. A sample of the liquefied corn mash (CM) was pH-adjusted to 5.05 with H2SO4. After pH adjustment, the mash was split up into approximately 59 of CM and added to 36 15 mL plastic centrifuge tubes. Various amounts of L. paracasei were then added to give an initial cell count of about 1-3×10^6/mL. Different dosages (0-100-300-1000 mg/L) of Lysozyme (Sigma) were also added to each tube. The tubes were then thoroughly vortexed and placed in a rack in 32° C. water bath. Tubes were pulled after 0, 24, and 48 hours for bacterial plating and counting. No additional Lysozyme was added to any of the tubes after time zero."}
{"substance": "Lysozyme: Lysozyme from hen egg white, cat # L-7651, purchased from Sigma", "values": [{"measurement": "Antibacterial effect on Lactobacillus (growth inhibition)", "result": "effective inhibiting growth of Lactobacillus paracasei"}]}
